Reference: ChEMBL document CHEMBL1201862, “PubChem BioAssay data set” (2004)
Blank lines part the entries; values can stand above or below the compound they belong to. Active and inactive are the calls of the source. Rule as the data show it, for most assays here: actives have a measured IC50 and inactives only a lower limit.

Columns and labels:
[1] = tested on: CHO; experiment: CHO cell viability loss, potency – luminescence, cytotoxicity control for TLR9-MyD88 binding inhibitor project, dose response (AID 588339); assay type: functional, cell-based, hamster; conditions: Cricetulus griseus;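 also: CHO cells stably coexpressing TLR9 and MyD88 fusions from primary screen; compound exposure lasted 48 hours before viability readout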
[2] = tested on: HeLa; experiment: ATP-based viability loss in HeLa cells – cell-based, CellTiter-Glo luminescence, cherry-pick samples, cytotoxicity control for MITF activator project, dose response (AID 540259); assay type: functional; conditions: Homo sapiens
[3] = molecular target: Beta Lactamase (Pseudomonas aeruginosa, UniProt Q932Y6); experiment: BLA reporter interference, concentration series – BLA reporter cells, FRET fluorescence, artefact control for TLR9-MyD88 binding inhibitor project, dose response (AID 588341); assay type: cell-based;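 also: cell based assay in CHO-K1 cells stably expressing beta-lactamase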
[4] = molecular target: 72 kDa type IV collagenase (Homo sapiens, UniProt P08253); experiment: Dose Response validation of uHTS RPN11 inhibitor hits using a MMP-2 Fluorescence assay.; assay type: functional
[5] = molecular target: 26S proteasome non-ATPase regulatory subunit 14 (Homo sapiens, UniProt O00487); experiment: inhibition of proteasome subunit RPN11 – biochemical, fluorescence polarization, uHTS hits, confirmation (AID 602368); assay type: functional
[6] = molecular target: T1, Carboxy-terminal domain RNA polymerase II polypeptide A small phosphatase 1 (Homo sapiens, UniProt Q9GZU7); experiment: CTDSP1 inhibitors, concentration-response, biochemical, absorbance readout, ultra-high-throughput screen actives (AID 540297); assay type: functional
T1 sequence (Q9GZU7 whole entry): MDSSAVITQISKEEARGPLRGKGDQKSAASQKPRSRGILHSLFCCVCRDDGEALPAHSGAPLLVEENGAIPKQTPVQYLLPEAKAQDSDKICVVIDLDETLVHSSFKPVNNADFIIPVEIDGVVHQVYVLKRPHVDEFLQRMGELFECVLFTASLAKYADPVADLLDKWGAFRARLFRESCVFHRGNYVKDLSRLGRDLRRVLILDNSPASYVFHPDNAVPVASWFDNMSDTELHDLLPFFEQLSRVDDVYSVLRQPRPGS

[7] = molecular target: Prothrombin (Bos taurus, UniProt P00735); experiment: thrombin protease inhibitors – biochemical, fluorescence polarization, uHTS hits, dose response (AID 602369); assay type: functional
[8] = molecular target: T2, Sentrin-specific protease 7 (Homo sapiens, UniProt Q9BQF6); experiment: inhibition of human SENP7 cleavage activity – biochemical, luminescence, SAR follow-up (AID 504497); assay type: functional
T2 sequence (Q9BQF6 whole entry): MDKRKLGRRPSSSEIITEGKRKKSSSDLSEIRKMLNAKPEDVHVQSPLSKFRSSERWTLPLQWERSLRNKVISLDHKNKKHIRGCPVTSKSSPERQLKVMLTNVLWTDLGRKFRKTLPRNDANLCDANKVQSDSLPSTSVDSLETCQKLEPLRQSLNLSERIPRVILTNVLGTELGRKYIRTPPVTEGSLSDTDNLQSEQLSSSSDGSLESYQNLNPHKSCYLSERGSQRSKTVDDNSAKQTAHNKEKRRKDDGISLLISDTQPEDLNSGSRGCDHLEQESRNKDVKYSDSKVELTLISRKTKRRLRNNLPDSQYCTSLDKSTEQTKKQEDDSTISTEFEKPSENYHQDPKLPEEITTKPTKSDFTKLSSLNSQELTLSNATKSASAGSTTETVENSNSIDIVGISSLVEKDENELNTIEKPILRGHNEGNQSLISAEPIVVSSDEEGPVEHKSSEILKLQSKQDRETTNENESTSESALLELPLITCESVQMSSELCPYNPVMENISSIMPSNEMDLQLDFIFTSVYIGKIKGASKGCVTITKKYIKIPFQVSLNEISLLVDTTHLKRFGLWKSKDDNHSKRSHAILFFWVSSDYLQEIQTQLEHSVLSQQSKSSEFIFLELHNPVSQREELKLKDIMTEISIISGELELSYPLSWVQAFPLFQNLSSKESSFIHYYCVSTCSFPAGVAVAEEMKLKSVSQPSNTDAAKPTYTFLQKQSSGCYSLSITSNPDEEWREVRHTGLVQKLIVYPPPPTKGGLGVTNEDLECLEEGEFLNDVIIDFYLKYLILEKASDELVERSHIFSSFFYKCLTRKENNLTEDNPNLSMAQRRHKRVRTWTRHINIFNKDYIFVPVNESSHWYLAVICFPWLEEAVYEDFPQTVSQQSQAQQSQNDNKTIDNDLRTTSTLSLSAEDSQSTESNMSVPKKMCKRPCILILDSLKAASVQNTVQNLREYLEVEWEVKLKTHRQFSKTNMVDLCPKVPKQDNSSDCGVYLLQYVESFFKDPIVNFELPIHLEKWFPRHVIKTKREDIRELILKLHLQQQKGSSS

[9] = molecular target: T3, Caspase-3 (Homo sapiens, UniProt P42574); experiment: SAR Analysis of small molecule inhibitors of Sentrin-specific proteases (SENPs) using a Caspase-3 Selectivity assay. [Related pubchem assays (depositor defined):AID2540, AID2599, AID434973, AID489001]; assay type: functional
T3 sequence (P42574 whole entry): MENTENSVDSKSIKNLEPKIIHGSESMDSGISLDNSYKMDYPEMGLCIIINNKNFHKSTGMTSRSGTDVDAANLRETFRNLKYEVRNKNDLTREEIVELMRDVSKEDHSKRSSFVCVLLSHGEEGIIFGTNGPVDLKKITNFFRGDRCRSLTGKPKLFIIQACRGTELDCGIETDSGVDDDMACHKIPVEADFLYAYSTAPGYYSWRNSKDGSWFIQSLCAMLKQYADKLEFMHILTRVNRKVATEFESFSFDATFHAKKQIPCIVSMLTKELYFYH

[10] = molecular target: T4, Sentrin-specific protease 6 (Homo sapiens, UniProt Q9GZR1); experiment: SAR Analysis of small molecule inhibitors of Sentrin-specific protease 6 (SENP6) using a Luminescent assay. [Related pubchem assays (depositor defined):AID2582, AID2599]; assay type: functional
T4 sequence (Q9GZR1 whole entry): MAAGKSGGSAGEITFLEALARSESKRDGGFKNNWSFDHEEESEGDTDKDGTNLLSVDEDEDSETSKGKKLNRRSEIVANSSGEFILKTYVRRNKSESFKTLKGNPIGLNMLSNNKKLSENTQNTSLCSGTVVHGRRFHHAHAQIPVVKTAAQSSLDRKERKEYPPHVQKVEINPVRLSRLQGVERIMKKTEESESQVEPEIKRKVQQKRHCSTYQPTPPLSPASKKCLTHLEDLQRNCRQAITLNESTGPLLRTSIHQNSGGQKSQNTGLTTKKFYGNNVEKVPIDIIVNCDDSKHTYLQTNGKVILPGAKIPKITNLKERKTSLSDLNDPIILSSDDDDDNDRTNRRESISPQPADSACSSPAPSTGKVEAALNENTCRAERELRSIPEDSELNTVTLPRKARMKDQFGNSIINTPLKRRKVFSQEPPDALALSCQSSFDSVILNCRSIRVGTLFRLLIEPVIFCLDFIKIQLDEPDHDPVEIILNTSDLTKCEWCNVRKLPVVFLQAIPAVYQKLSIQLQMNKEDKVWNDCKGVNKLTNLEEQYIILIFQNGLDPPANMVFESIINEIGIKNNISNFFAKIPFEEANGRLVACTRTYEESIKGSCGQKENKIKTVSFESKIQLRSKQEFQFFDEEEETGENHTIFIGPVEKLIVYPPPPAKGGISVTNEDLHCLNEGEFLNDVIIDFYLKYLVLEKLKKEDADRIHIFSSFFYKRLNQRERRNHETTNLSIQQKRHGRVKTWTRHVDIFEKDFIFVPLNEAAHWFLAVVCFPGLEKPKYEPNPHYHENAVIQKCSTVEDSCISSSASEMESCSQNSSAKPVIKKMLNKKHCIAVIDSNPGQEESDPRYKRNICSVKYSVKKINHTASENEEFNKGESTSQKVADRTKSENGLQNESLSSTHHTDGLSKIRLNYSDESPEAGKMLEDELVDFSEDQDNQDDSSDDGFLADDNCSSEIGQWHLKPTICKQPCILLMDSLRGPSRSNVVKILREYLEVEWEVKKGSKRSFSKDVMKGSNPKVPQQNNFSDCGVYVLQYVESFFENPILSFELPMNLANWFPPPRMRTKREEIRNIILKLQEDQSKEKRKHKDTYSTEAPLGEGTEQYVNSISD

[11] = molecular target: T5, Sentrin-specific protease 8 (Homo sapiens, UniProt Q96LD8); experiment: inhibition of human SENP8 cleavage activity – biochemical, luminescence, SAR follow-up (AID 504501); assay type: functional
T5 sequence (Q96LD8 whole entry): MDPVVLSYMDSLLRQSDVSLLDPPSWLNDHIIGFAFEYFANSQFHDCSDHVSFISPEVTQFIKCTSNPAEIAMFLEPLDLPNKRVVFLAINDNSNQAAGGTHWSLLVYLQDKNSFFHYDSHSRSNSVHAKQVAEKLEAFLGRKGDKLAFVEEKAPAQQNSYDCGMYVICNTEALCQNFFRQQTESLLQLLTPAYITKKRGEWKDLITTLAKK

Chain of 72 kDa type IV collagenase (P08253 whole entry): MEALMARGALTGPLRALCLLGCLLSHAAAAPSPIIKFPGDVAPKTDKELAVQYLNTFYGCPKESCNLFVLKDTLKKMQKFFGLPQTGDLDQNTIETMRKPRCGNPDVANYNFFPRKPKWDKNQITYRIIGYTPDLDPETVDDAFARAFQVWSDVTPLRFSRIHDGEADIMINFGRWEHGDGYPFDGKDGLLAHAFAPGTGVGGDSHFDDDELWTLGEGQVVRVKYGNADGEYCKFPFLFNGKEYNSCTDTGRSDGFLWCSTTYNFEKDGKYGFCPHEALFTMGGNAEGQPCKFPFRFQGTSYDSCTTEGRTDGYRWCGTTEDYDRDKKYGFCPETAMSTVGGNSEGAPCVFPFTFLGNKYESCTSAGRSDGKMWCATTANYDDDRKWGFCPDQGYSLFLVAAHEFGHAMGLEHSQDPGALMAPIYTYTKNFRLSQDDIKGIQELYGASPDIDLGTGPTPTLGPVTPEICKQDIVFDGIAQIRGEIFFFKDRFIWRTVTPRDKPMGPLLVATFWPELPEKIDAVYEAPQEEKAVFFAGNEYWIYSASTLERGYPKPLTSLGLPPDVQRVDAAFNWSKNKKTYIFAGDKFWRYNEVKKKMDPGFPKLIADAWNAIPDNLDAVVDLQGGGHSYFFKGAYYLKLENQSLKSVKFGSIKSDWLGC
Chain of 26S proteasome non-ATPase regulatory subunit 14 (O00487 whole entry, the tested form may be a part): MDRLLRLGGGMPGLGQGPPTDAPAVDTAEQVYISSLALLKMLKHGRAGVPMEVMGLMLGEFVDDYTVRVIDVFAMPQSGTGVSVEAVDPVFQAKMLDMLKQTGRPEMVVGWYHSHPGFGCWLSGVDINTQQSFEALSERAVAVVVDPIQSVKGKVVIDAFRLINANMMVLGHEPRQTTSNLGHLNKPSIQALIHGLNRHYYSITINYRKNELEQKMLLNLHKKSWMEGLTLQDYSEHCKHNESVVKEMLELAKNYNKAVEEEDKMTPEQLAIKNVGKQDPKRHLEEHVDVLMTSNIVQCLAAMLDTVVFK
Chain of Beta Lactamase (Q932Y6 whole entry): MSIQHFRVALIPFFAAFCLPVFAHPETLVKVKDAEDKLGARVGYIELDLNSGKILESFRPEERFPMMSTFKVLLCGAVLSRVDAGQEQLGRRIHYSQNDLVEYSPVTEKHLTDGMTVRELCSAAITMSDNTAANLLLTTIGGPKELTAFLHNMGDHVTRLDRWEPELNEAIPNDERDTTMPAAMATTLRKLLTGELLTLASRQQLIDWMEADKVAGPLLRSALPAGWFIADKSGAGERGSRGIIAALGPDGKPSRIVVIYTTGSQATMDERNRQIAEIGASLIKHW

SMILES: Nc1c(C(=O)N2CCCC2)sc2nc(-c3ccccc3)ccc12
IC50 [1]: > 49.7 µM (inactive) | AC50 [2]: 197 µM (active) | IC50 [3]: 12.4 µM (inactive)

IC50 [4]: > 100 µM (inactive) | IC50 [5]: 24.8 µM (active) | IC50 [6]: 18.5 µM (active) | IC50 [7]: 71.3 µM (active)
SMILES: O=C(NNc1ncnc2ccccc12)c1cccc(Cl)c1

IC50 [4]: > 100 µM (inactive) | IC50 [5]: 8.23 µM (active) | IC50 [7]: 11.4 µM (active)
SMILES: O=Cc1sc(Nc2ccccc2)nc1Cl

IC50 [8]: > 99 µM (inactive) | IC50 [9]: > 99 µM (inactive) | IC50 [10]: > 99 µM (inactive)
SMILES: COc1ccc(OC)c2sc(NC(=O)c3ccc(Br)s3)nc12
IC50 [11]: > 99 µM (inactive)
